Source: patent EP1148124A1 (priority 1999, dated 2000)

System: aryl hydrocarbon receptor
Assay: Reporter assay (No. 1), ligand responsive reporter gene (firefly luciferase, pGV-Ya-XREx5), clone of Example 2
Format: cell-based, mouse
Conditions: about 40 hours; for Amount of luminescence by firefly luciferase (from pGV-Ya-XREx5) Ratio: ratio to 0 pg/ml
Description: Separately, plasmid pGV-Ya-XREx5 (ligand responsive reporter gene containing plasmid) constructed in Example 1 was digested with Bam HI. Further, plasmid pRL-TK (cell number reporter gene containing plasmid; marketed by Toyo Ink) containing the sea pansy luciferase gene used as the cell number reporter gene was digested with Bam HI, and neomycin resistance (aminoglycoside phosphotransferase) gene containing plasmid pRc/RSV (available from INVITROGEN) was digested with Hind III. These three digested plasmids, i.e., Bam HI digested pGV-Ya-XREx5 (2.8 µg), Bam HI digested pRL-TK (2.8 µg), and Hind III digested pRc/RSV (0.5 µg), were then mixed with 300 µl of αMEM medium (mixture A), while 36 µl of lipofectin (available from GIBCO-BRL) was mixed with 300 µl of αMEM medium (mixture B). After being left at room temperature for 30 minutes, mixtures A and B were combined together and left at room temperature for 10 minutes. The Hepa1clc7 cells cultured overnight as described above were then washed once with αMEM medium, to which there was added a solution prepared by adding and mixing additional 5.4 ml of αMEM medium to the above mixture (A + B). Culturing of the resulting mixture was carried out for 5 hours. The medium was then replaced with 10% serum containing αMEM medium, followed by further culturing overnight. Subsequently, the cells were scratched from the petri dishes and collected, and the collected cells were suspended in 10% serum containing αMEM medium to have the total volume of 100 ml. The resulting cell suspension was plated on 96 well plates at a ratio of 100 µl/well. After these plates were cultured overnight, a medium prepared by dissolving geneticin (hereinafter referred to as "G418") in 10% serum containing αMEM medium to have a concentration of 1.6 mg/ml was added at a ratio of 100 µl/well (G418 final concentration 800 µg/ml). Culturing was further continued for 3 weeks, during which the medium was replaced with 10% serum containing αMEM medium containing 800 µg/ml G418 at a rate of once per week. The volume of the medium was set at 200 µl/well. After said 3 weeks, cells were scratched from the wells in which colony formation had been observed, and collected (for 192 wells), and the collected cells were divided into three and independently plated on different plates, followed by continuous culturing for 4 days. To the first plate, only DMSO was added (solvent control), and to the second plate, 3-methylcholanthrene (hereinafter referred to as "3-MC") dissolved in DMSO was added so that the final concentration of 3-MC in the second plate came to 10 µM per well. The first and second plates were then cultured overnight. The third plate was further cultured as the master plate without any addition. From each well of each plate, to which DMSO or 3-MC had been added, the medium was removed, and the wells were washed twice with PBS(-) (sodium chloride, 8000 mg/l; potassium chloride, 200 mg/l; sodium monohydrogenphosphate (anhydrous), 1150 mg/l; […] dihydrogenphosphate (anhydrous), 200 mg/l; marketed by Nissui Pharmaceutical). A 5-fold diluted cell lysis buffer of PicaGene dual kit (marketed by Toyo Ink) was added to the wells in 15 µl/well, followed by leaving the plates at room temperature for 30 minutes or longer to cause cell lysis, to give cell extracts. These plates were set on a luminometer LB96P with an automatic enzyme substrate injector (available from Berthold), and PicaGene luminescence reagent II and sea pansy luminescence reagent (PicaGene dual kit, marketed by Toyo Ink) were automatically dispensed each in 50 µl, followed by continuous measurement for the amount of luminescence.
The clone screened in Example 2 was plated on 96-well plates at a ratio of 40,000 cells/well, followed by culturing overnight. […]

Clc1cc2c(cc1Cl)Oc1cc(Cl)c(Cl)cc1O2 [TCDD, 2,3,7,8-tetrachlorodibenzo-p-dioxin]
Amount of luminescence by firefly luciferase (from pGV-Ya-XREx5) Measured value (final conc. 0.02 pg/ml): 0.517 x 10^4
Amount of luminescence by firefly luciferase (from pGV-Ya-XREx5) Ratio (final conc. 0.02 pg/ml): 1.1
Amount of luminescence by firefly luciferase (from pGV-Ya-XREx5) Measured value (final conc. 0.2 pg/ml): 0.532 x 10^4
Amount of luminescence by firefly luciferase (from pGV-Ya-XREx5) Ratio (final conc. 0.2 pg/ml): 1.1
Amount of luminescence by firefly luciferase (from pGV-Ya-XREx5) Measured value (final conc. 2 pg/ml): 0.873 x 10^4
Amount of luminescence by firefly luciferase (from pGV-Ya-XREx5) Ratio (final conc. 2 pg/ml): 1.8
Amount of luminescence by firefly luciferase (from pGV-Ya-XREx5) Measured value (final conc. 20 pg/ml): 3.14 x 10^4
Amount of luminescence by firefly luciferase (from pGV-Ya-XREx5) Ratio (final conc. 20 pg/ml): 6.5
Amount of luminescence by firefly luciferase (from pGV-Ya-XREx5) Measured value (final conc. 200 pg/ml): 4.46 x 10^4
Amount of luminescence by firefly luciferase (from pGV-Ya-XREx5) Ratio (final conc. 200 pg/ml): 9.2
Amount of luminescence by firefly luciferase (from pGV-Ya-XREx5) Measured value (final conc. 2000 pg/ml): 4.17 x 10^4
Amount of luminescence by firefly luciferase (from pGV-Ya-XREx5) Ratio (final conc. 2000 pg/ml): 8.6
Amount of luminescence by firefly luciferase (from pGV-Ya-XREx5) Measured value (final conc. 20000 pg/ml): 4.49 x 10^4
Amount of luminescence by firefly luciferase (from pGV-Ya-XREx5) Ratio (final conc. 20000 pg/ml): 9.2
